For one assay, the system named is AMARE (redroot pigweed). The assay is described as follows: Pre-plant incorporated (PPI) herbicidal activity, warm season. The class given is in vivo, Amaranthus retroflexus. The settings on record: for PPI activity (GR80) AMARE: pre-plant incorporated, GR80 = lowest tested rate with 80% or greater inhibition, approx. 14 days after treating, 30/21° C. The procedure, abridged:
(§1)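 Percent inhibition relative to untreated plants, scored about 14 days after planting. Compound was sprayed in organic solvent onto cover soil, mixed through, and layered over seeds on compacted topsoil. Warm-season species grown at 30/21° C, cool-season at 18/13° C day/night.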

For the next assay, the system named is oilseed rape (BRSNS). The assay is described as follows: Selectivity test, PPI, cool season crop. Conditions: PPI application. Format: in vivo, Brassica napus. The procedure, abridged:
(§2)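 Percent inhibition relative to untreated controls, assessed roughly 14 days post-planting. Seeds were covered with a soil layer into which solvent-borne compound had been sprayed and mixed. Plants were then grown at 30/21° C. (warm season) or 18/13° C. (cool season) day/night regimes.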

In a further assay the test system is POLCO (wild buckwheat). Description: Pre-emergence herbicidal activity, cool season. Format: in vivo, Polygonum convolvulus. Conditions: lowest tested rate with 80% or greater inhibition; rates 300, 100, 30, 10 g/ha; about 14 days. Summed up:
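GR80 values derive from percent inhibition relative to untreated plants, read roughly 14 days after sowing and pre-emergence soil-surface treatment (compound in 50:50 acetone/water; rates typically 10, 30, 100, 300 g/ha). Warm-season weeds grew at 30/21° C day/night, cool-season ones at 18/13° C; an asterisk marks activity without reaching 80% at the highest rate.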

For assay [1], the system named is AEGCY (jointed goatgrass). The assay is described as follows: Post-emergence herbicidal activity, cool season. Conditions: abraded plants sprayed at 300, 100, 30 and 10 g/ha; about 14 days after treatment. The class given is in vivo, Aegilops cylindrica. Summed up:
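GR80 values derive from percent growth inhibition scored approximately 14 days post-spray against abraded, unsprayed controls under an 18/13 °C regime. Foliar application to sandblast-abraded plants used rates of 300, 100, 30 and 10 g/ha in 50:50 acetone/water at 3,100 l/ha.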

For another assay, the system named is barley (HORVX). Description: Selectivity test, PPI, cool season crop. The settings on record: PPI application. Format: in vivo, Hordeunm vulgare. The procedure, abridged:
as §2

In assay [2] the test system is GALAP (catchweed bedstraw). Description: Pre-plant incorporated (PPI) herbicidal activity, cool season. Format: in vivo, Galium aparine. The settings on record: for PPI activity GR80, GALAP: pre-plant incorporated, lowest tested rate with 80% or greater inhibition, about 14 days. Summed up: as §1

As usually defined, the inhibition is the change of the read-out against control, counted positive when it falls.

With `C=C(Br)CC(F)(F)S(=O)(=O)c1ncn(C(=O)N(CC)CC)n1` [Example 19], the inhibition at 10 g/ha in the assay with AMARE (redroot pigweed) (Amaranthus retroflexus, PPI application, 10 g/ha, read-out: Percent inhibition AMARE) stood at 0%; with oilseed rape (BRSNS) (Brassica napus, 10 g/ha, read-out: Percent inhibition BRSNS), 0%; in the assay with barley (HORVX) (Hordeum vulgare, 10 g/ha, read-out: Percent inhibition HORVX), 0%; in assay [2] (Galium aparine, weed, PPI application, 10 g/ha, read-out: Percent inhibition GALAP) it was 85%. For the same molecule, the inhibition at 30 g/ha in the assay on AMARE (redroot pigweed) (Amaranthus retroflexus, PPI application, 30 g/ha, read-out: Percent inhibition AMARE) came out at 20%; with oilseed rape (BRSNS) (Brassica napus, 30 g/ha, read-out: Percent inhibition BRSNS) it was 0%; in the assay on barley (HORVX) (Hordeum vulgare, 30 g/ha, read-out: Percent inhibition HORVX), 0%; in assay [2] (Galium aparine, weed, PPI application, 30 g/ha, read-out: Percent inhibition GALAP), 100%. The inhibition at 100 g/ha in the assay on AMARE (redroot pigweed) (Amaranthus retroflexus, PPI application, 100 g/ha, read-out: Percent inhibition AMARE) was found to be 95%; in the assay with oilseed rape (BRSNS) (Brassica napus, 100 g/ha, read-out: Percent inhibition BRSNS), 0%; in the assay on barley (HORVX) (Hordeum vulgare, 100 g/ha, read-out: Percent inhibition HORVX), 20%; in assay [2] (Galium aparine, weed, PPI application, 100 g/ha, read-out: Percent inhibition GALAP), 100%. Further, the inhibition at 300 g/ha in the assay with AMARE (redroot pigweed) (Amaranthus retroflexus, PPI application, 300 g/ha, read-out: Percent inhibition AMARE) worked out at 95%; in the assay with oilseed rape (BRSNS) (Brassica napus, 300 g/ha, read-out: Percent inhibition BRSNS), 60%; with barley (HORVX) (Hordeum vulgare, 300 g/ha, read-out: Percent inhibition HORVX), 20%; in assay [2] (Galium aparine, weed, PPI application, 300 g/ha, read-out: Percent inhibition GALAP), 50%. The inhibition at 900 g/ha was found to be 100% with AMARE (redroot pigweed) (Amaranthus retroflexus, PPI application, 900 g/ha, read-out: Percent inhibition AMARE); 95% with oilseed rape (BRSNS) (Brassica napus, 900 g/ha, read-out: Percent inhibition BRSNS); 45% with barley (HORVX) (Hordeum vulgare, 900 g/ha, read-out: Percent inhibition HORVX); 100% in assay [2] (Galium aparine, weed, PPI application, 900 g/ha, read-out: Percent inhibition GALAP). For the same molecule, the “PPI activity (GR80) AMARE” value in the assay with AMARE (redroot pigweed) was determined as 100 g/ha. The “Pre-emergence activity GR80, POLCO” value in the assay on POLCO (wild buckwheat) is “[empty]”. Moreover, the “Post-emergence activity GR80, AEGCY” value in assay [1] was “[empty]”. Further, the “PPI activity GR80, GALAP” value in assay [2] is listed as 100 g/ha.

For `C=C(CC(F)(F)S(=O)(=O)c1ncn(C(=O)N(CC)CC)n1)C[Si](C)(C)C` [Example 20], the “Percent inhibition AMARE” value is 0% in the assay with AMARE (redroot pigweed) (PPI application, 10 g/ha); 0% with AMARE (redroot pigweed) (PPI application, 30 g/ha); 50% with AMARE (redroot pigweed) (PPI application, 100 g/ha); 100% in the assay on AMARE (redroot pigweed) (PPI application, 300 g/ha); 100% in the assay on AMARE (redroot pigweed) (PPI application, 900 g/ha). Besides, in the assay on AMARE (redroot pigweed), the “PPI activity (GR80) AMARE” value is 300 g/ha. For the same molecule, the “Percent inhibition BRSNS” value in the assay with oilseed rape (BRSNS) (10 g/ha) is recorded as 0%; with oilseed rape (BRSNS) (30 g/ha) it was 20%; with oilseed rape (BRSNS) (100 g/ha) it was 20%; in the assay on oilseed rape (BRSNS) (300 g/ha), 60%; in the assay on oilseed rape (BRSNS) (900 g/ha) it was 95%. The “Pre-emergence activity GR80, POLCO” value with POLCO (wild buckwheat) is “* (activity observed, at least at highest rate, but <80% inhibition)”. In addition, in assay [1], the “Post-emergence activity GR80, AEGCY” value was “[empty]”. Also, the “Percent inhibition HORVX” value with barley (HORVX) (10 g/ha) was 0%; with barley (HORVX) (30 g/ha) it was 0%; in the assay with barley (HORVX) (100 g/ha) it was 0%; in the assay with barley (HORVX) (300 g/ha), 10%; in the assay on barley (HORVX) (900 g/ha) it was 30%. Further, the “PPI activity GR80, GALAP” value in assay [2] is “[empty]”. Also, the “Percent inhibition GALAP” value was determined as 0% in assay [2] (weed, PPI application, 10 g/ha); 0% in assay [2] (weed, PPI application, 30 g/ha); 50% in assay [2] (weed, PPI application, 100 g/ha); 90% in assay [2] (weed, PPI application, 300 g/ha); 100% in assay [2] (weed, PPI application, 900 g/ha).

Values taken from patent US6461997B1, “Triazole sulfones having herbicidal activity” (Monsanto Technology LLC, priority 1999, dated 2002).
